{"source": "patent US5843916A", "about": "“Cyclic amp analogues, individually and in pairs, to inhibit neoplastic cell growth” (priority 1994, dated 1998)", "key": {"[1]": {"tested_on": "breast and colon cancer lines (MCF-7, T-47D, ZR-75-1, MCF-7ras, MDA-MB-231, BT-20, HBL-100, LS-174T, WiDr, HT-29)", "conditions": "millimolar concentrations; previously reported; cited from earlier work"}, "[2]": {"tested_on": "breast (MCF-7) and colon (LS-174T) cancer cell lines", "assay": "Growth inhibition of breast and colon cancer cells (Table 1)", "type": "cell-based, human", "conditions": "Homo sapiens, 50 μM, average (range)", "protocol": "The compounds of the present invention were added using 100X concentrated stock solutions. At desired times, cell counts in duplicate were performed on a Coulter counter after harvesting the cells with gentle trypsinization. […] Cell counts were performed on each of three or more separate experiments, and the average values are expressed as percent growth inhibition as compared with untreated control cells. | ^a The values of percentage growth inhibition were determined from th | doseresponse curve experiments. Each value represents an average value an | range (in parentheses) obtained from three or more separate experiments. | The cell counts in duplicate were performed at day 3 and day 4 after two | treatments (day 0 and day 2) with analogs (seeding on day -1)."}, "[3]": {"tested_on": "HL-60 human leukemia cells", "assay": "Growth inhibition of HL-60 leukemia cells (Example 3, Table 16)", "type": "cell-based", "conditions": "for IC50: Homo sapiens", "protocol": "HL-60 leukemic cells were obtained from the American Type Culture Collection (Rockville, Md.) and were grown in suspension culture in RPMI 1640 supplemented with 10% heat-inactivated fetal bovine serum, streptomycin (500 μg/ml), penicillin (50 units/ml), and glutamine (1 mM) (Gibco, Grand Island, N.Y.).\nCell counts were performed at desired times on a Coulter Counter.\nThe IC50 values were determined from the dose-\nrepresent an average value obtained for each analogue\nfrom two or more separate experiments carried out from 3\ndays or 6 days. Initial cell number, 1 × 10^5 /dish.\nTypical numbers of untreated control cells at day 3 and\nviability in treated and control cells."}, "[4]": {"molecular_target": "T1, RII, regulatory subunit of cAMP-dependent protein kinase type II (Bos taurus, UniProt P00515)", "T1 construct": "from tissue", "T1 sequence (P00515 whole entry)": "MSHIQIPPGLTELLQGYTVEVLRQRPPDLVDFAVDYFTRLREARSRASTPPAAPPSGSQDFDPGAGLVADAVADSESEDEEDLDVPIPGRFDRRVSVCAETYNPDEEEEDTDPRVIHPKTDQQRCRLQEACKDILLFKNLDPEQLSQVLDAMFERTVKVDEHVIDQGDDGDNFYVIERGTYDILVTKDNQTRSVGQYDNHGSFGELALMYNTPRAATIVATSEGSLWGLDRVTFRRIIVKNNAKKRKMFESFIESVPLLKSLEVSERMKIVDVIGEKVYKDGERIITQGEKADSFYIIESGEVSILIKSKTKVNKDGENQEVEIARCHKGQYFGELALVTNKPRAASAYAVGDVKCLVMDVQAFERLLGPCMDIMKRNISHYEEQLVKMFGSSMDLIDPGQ", "assay": "Binding affinity for RII (Table 14)", "protocol": "(§1) RI and RII are the regulatory subunits of cAMP-dependent protein\n(§2) kinase type I and type II, respectively. Site A (Site 2) and Site B\n(§3) (RI and RII): the affinities of analogues for Site A and Site B were\n(§4) determined by the measurement of kinetic constants (inhibition constant,\n(§5) Ki), and the values are expressed as the relative affinity Ki\n(§6) (analogue), i.e., the ratio between the apparent inhibition constant for\n(§7) cAMP and the analogue, as described in Ogreid et al., Eur. J. Biochem."}, "HL-60 leukemia cells": {"tested_on": "HL-60 leukemia cells", "assay": "Surface antigen expression of HL-60 cells (Example 5)", "type": "cell-based, human", "conditions": "100 μM", "protocol": "(§8) Briefly, cells were fixed in 70% ethanol and stored at 4° C. before analysis. Nuclear DNA was stained with propidium iodide, 50 μg/ml in phosphate-buffered saline (pH 7.4), for 30 minutes at room temperature. RNase was added to avoid double-helix RNA staining. The DNA content of cells was analyzed by a FACScan flow cytometer coupled with a Hewlett-Packard computer. Cell cycle data analysis was performed by a Cell-FIT program according to the method of Dean (Cell Tissue Kinet. 13: 299-308 (1980)) (Becton Dickinson Immunocytometry Systems). Pulse area versus pulse width gating was performed to exclude doublets from the G2 -M region. For each sample, 20,000 events were stored in list mode. Cell surface antigen analysis was performed by flow cytometry with FACScan using a panel of monoclonal antibodies reactive with either monocytic or myeloid cells.\nThe effect of Rp- and Sp-8-Cl-cAMPS on the expression of differentiation markers in HL-60 cells was examined to determine if the growth-arrested HL-60 cells are more differentiated than untreated cells. […] For each sample, 2×10^4 cells were analyzed. Cell surface antigen analysis was performed by flow cytometry with FACScan. Cell gating was performed using forward and side scatter."}, "HL-60 Cells": {"tested_on": "HL-60 Cells", "assay": "Cell cycle kinetics of HL-60 cells (Table 17)", "type": "cell-based, human", "conditions": "for % G2 M / % G0-G1 / % S: 96 hours; for % G2 M: control 8.3; for % G0-G1: control 45.7; for % S: control 46", "protocol": "as §8"}, "[5]": {"molecular_target": "T2, Protein kinase type II (cAKII) (Bos taurus, UniProt P00515)", "T2 construct": "prepared from rabbit skeletal muscle and bovine heart; from tissue; host or cells: bovine heart", "T2 sequence (P00515 2-401 limits assumed)": "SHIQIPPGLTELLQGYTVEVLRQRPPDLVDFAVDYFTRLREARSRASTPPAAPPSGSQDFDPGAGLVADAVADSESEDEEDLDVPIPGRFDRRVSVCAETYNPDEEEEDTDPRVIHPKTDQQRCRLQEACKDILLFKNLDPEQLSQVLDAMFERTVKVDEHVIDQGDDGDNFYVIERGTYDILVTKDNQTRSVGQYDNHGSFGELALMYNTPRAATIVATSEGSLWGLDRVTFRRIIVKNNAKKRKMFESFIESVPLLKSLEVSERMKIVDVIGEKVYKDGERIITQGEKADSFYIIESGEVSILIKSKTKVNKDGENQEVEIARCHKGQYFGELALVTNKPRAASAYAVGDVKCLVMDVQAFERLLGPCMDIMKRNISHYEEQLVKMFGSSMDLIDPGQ", "assay": "Protein kinase activation (Table 15)", "type": "biochemical, bovine (heart)", "protocol": "(§9) ATP to Kemptide as described by Ogreid et al., Eur. J. Biochem. 150: 219-227 (1985).\n(§10) Protein kinases types I (cAKI) and II (cAKII) were\n(§11) prepared from rabbit skeletal muscle and bovine heart,\n(§12) respectively, as described in D.o slashed.skeland et al. (J. Biol.\n(§13) of the protein kinase in Ogreid et al. (Eur. J. Biochem."}, "[6]": {"tested_on": "LS-174T human colon carcinoma cells", "assay": "Growth inhibition of LS-174T cells (Example 4, Table 18)", "type": "cell-based", "protocol": "LS-174T human colon carcinoma cells were obtained from the National Cancer Institute, Division of Cancer Treatment, Bethesda, Md., and were grown in Eagle's minimum essential medium supplemented with 10% heat-inactivated fetal bovine serum, Eagle's minimum essential medium nonessential amino acids, 20 mM 4-(2-hydroxyethyl)-1-piperazineethanesulfonic acid, 2mM glutamine, and penicillin-streptomycin (Gibco). The medium was changed every 48 hours.\nLS-174T cells were seeded at a density of 2×10^5 / 60 mm dish. […] At desired times, cell counts were performed in duplicate on a Coulter Counter after harvesting cells with gentle trypsinization.\nThe percentage growth inhibition values shown at 10\nand 50 μM analogue concentrations were determined from\nthe dose-response curve experiments like those shown in\nFIG. 1 and represent an average value obtained for each\nanalogue from two or more separate experiments. Sp-6-SET-"}, "[7]": {"molecular_target": "T3, RI, regulatory subunit of cAMP-dependent protein kinase type I (Oryctolagus cuniculus, UniProt G1TDN4)", "T3 construct": "from tissue", "T3 sequence (G1TDN4 1-381)": "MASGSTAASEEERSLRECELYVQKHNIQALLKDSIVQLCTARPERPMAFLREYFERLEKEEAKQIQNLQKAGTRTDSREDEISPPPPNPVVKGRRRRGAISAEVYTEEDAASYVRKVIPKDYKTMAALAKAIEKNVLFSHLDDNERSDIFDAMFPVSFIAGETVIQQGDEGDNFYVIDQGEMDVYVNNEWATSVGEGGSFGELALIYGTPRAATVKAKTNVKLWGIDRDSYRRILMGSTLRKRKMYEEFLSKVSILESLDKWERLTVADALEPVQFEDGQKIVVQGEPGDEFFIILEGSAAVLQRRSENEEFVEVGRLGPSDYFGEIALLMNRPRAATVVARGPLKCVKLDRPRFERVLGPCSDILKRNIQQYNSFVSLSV", "assay": "Binding affinity for RI (Table 14)", "protocol": "as §1, §2, §3, §4, §5, §6, §7"}, "[8]": {"molecular_target": "T4, Protein kinase type I (cAKI) (Oryctolagus cuniculus, UniProt G1TDN4)", "T4 construct": "prepared from rabbit skeletal muscle and bovine heart; from tissue; host or cells: rabbit skeletal muscle", "T4 sequence (G1TDN4 1-381)": "as above", "assay": "Protein kinase activation (Table 15)", "type": "biochemical, rabbit (skeletal muscle)", "protocol": "as §9, §10, §11, §12, §13"}, "[9]": {"tested_on": "disseminated neuroblastomas", "conditions": "combined drug regimen; cited from earlier work"}, "YAC lymphoma cell": {"tested_on": "YAC lymphoma cell", "conditions": "mouse, in vivo; cited from earlier work"}, "[10]": {"conditions": "half-maximum activation, U. M.: unmeasurable"}}, "note": "Read-outs that look alike come from different tables or passages of the source.", "data": [{"compound": "CCCC(=O)Nc1ncnc2c1ncn2[C@@H]1O[C@@H]2COP(=O)(O)O[C@H]2[C@H]1O", "note": "[N^6 -butyryl-cAMP]", "values": [{"measurement": "growth inhibition", "setting": "[1]", "result": "growth inhibition only in the hormone-dependent breast cancer lines"}, {"measurement": "inhibition at 50 µM", "setting": "[2]; 72 h, day 3, read-out: % Growth Inhibition, Day 3", "result": 0, "unit": "%"}, {"measurement": "inhibition at 50 µM", "setting": "[2]; 96 h, day 4, read-out: % Growth Inhibition, Day 4", "result": 0, "unit": "%"}]}, {"compound": "Nc1ncnc2c1nc(Cl)n2[C@@H]1O[C@@H]2CO[P@](O)(=S)O[C@H]2[C@H]1O", "note": "[Sp-8-Cl-cAMPS, Sp-(axial exocyclic sulfursubstitution) 8-chloro-adenosine 3': 5'-monophosphorothioate]", "values": [{"measurement": "IC50", "setting": "[3]; HL-60, 72 h, read-out: Growth inhibition (IC50), Day 3", "result": 100, "unit": "µM"}, {"measurement": "IC50", "setting": "[3]; HL-60, 144 h, read-out: Growth inhibition (IC50), Day 6", "result": 8, "unit": "µM"}, {"measurement": "fold less potent than 8-Cl-cAMP", "setting": "[3]; growth inhibition HL-60, day 6", "result": 20, "unit": "fold"}, {"measurement": "relative affinity Ki (cAMP)/Ki (analogue), RII Site A", "setting": "[4]; Site A (Site 2)", "result": 0.0023}, {"measurement": "relative affinity Ki (cAMP)/Ki (analogue), RII Site B", "setting": "[4]; Site B (Site 1)", "result": 2.4}, {"measurement": "decrease in affinity for Site A of RII vs corresponding cyclophosphate", "setting": "[4]; vs cyclophosphate", "result": 22, "unit": "fold"}, {"measurement": "decrease in affinity for Site B of RII vs corresponding cyclophosphate", "setting": "[4]; vs cyclophosphate", "result": 1.9, "unit": "fold"}, {"measurement": "surface antigen expression", "setting": "HL-60 leukemia cells", "result": "no appreciable effect on the surface antigen expression"}, {"measurement": "% G2 M", "setting": "HL-60 Cells; 10 μM", "result": 8.9, "unit": "%"}, {"measurement": "% G0-G1", "setting": "HL-60 Cells; 10 μM", "result": 46.8, "unit": "%"}, {"measurement": "% S", "setting": "HL-60 Cells; 10 μM", "result": 44.3, "unit": "%"}, {"measurement": "% G2 M", "setting": "HL-60 Cells; 50 μM", "result": 8.6, "unit": "%"}, {"measurement": "% G0-G1", "setting": "HL-60 Cells; 50 μM", "result": 46, "unit": "%"}, {"measurement": "% S", "setting": "HL-60 Cells; 50 μM", "result": 45.4, "unit": "%"}, {"measurement": "% G2 M", "setting": "HL-60 Cells; 100 μM", "result": 9.0, "unit": "%"}, {"measurement": "% G0-G1", "setting": "HL-60 Cells; 100 μM", "result": 56, "unit": "%"}, {"measurement": "% S", "setting": "HL-60 Cells; 100 μM", "result": 35, "unit": "%"}, {"measurement": "cell cycle phase distribution", "setting": "HL-60 Cells; HL-60, 96 hours in Table 17", "result": "not appreciably different"}, {"measurement": "Activation Constant (Ka), cAKII", "setting": "[5]; [10]", "result": "2.5 × 10^-7"}, {"measurement": "increase in the Ka for protein kinase type II vs 8-Cl-cAMP", "setting": "[5]; vs 8-Cl-cAMP", "result": 2.5, "unit": "fold"}, {"measurement": "inhibition at 10 µM", "setting": "[6]; Homo sapiens, LS174T", "result": 20, "unit": "%"}, {"measurement": "inhibition at 50 µM", "setting": "[6]; Homo sapiens, LS174T", "result": 40, "unit": "%"}, {"measurement": "growth inhibitory potency", "setting": "[6]; LS-174T", "result": "moderate potency"}, {"measurement": "relative affinity Ki (cAMP)/Ki (analogue), RI Site A", "setting": "[7]; Site A (Site 2)", "result": 0.18}, {"measurement": "relative affinity Ki (cAMP)/Ki (analogue), RI Site B", "setting": "[7]; Site B (Site 1)", "result": 0.037}, {"measurement": "decrease in affinity for Site A of RI vs corresponding cyclophosphate", "setting": "[7]; vs cyclophosphate", "result": 15, "unit": "fold"}, {"measurement": "decrease in affinity for Site B of RI vs corresponding cyclophosphate", "setting": "[7]; vs cyclophosphate", "result": 54, "unit": "fold"}, {"measurement": "Activation Constant (Ka), cAKI", "setting": "[8]; [10]", "result": "2.5 × 10^-7"}, {"measurement": "increase in the Ka for protein kinase type I vs 8-Cl-cAMP", "setting": "[8]; vs 8-Cl-cAMP", "result": 11, "unit": "fold"}]}, {"compound": "COc1ccc(Cc2nccc3cc(OC)c(OC)cc23)cc1OC", "note": "[papaverine]", "values": [{"measurement": "clinical result", "setting": "[9]", "result": "promising results"}]}, {"compound": "cholera toxin", "values": [{"measurement": "inhibition of YAC lymphoma cell proliferation", "setting": "YAC lymphoma cell", "result": "almost complete inhibition of YAC lymphoma cell proliferation for up to four days"}]}]}
